Melting point data for 31 compounds are collected here from US9447100B2, “Substituted pyrazolo[1,5-A] pyrimidines as calcium receptor modulating agents” (Takeda Pharmaceutical Company Limited, priority 2002, dated 2016).

Counter-ions that a name gives are not always drawn.

A word on the melting point: it is the temperature of the solid-liquid transition. The compound `CCC(CC)(NC(=O)c1cnn2c1NC(c1ccccc1)CC2(C)C)c1ccc(Cl)c(Cl)c1` (stereo not shown) [Example 666, N-(1-(3,4-dichlorophenyl)-1-ethylpropyl)-7,7-dimethyl-5-phenyl-4,5,6,7-tetrahydropyrazolo[1,5-a]pyrimidine-3-carboxamide] returned a melting point of 156 to 157 °C.

`Cc1cccc(C2CC(C)(C)n3nc(C)c(C(=O)O)c3N2)c1` (stereo not shown) [Example 946, 2,7,7-trimethyl-5-(3-methylphenyl)-4,5,6,7-tetrahydropyrazolo[1,5-a]pyrimidine-3-carboxylic acid]: the melting point lay within 146 to 148 °C.

The compound `CCC1(NC(=O)c2cnn3c2NC(c2ccccc2)CC3(C)C)CC[S+]([O-])CC1` (stereo not shown) [Example 623, N-(4-ethyl-1-oxidotetrahydro-2H-thiopyran-4-yl)-7,7-dimethyl-5-phenyl-4,5,6,7-tetrahydropyrazolo[1,5-a]pyrimidine-3-carboxamide] registered a melting point of 172 to 173 °C.

Take `CC(NC(=O)c1cnn2c1N[C@H](c1ccccc1)C[C@@H]2C(F)(F)F)C(=O)c1ccccc1` (stereo in doubt) [Example 290, N-(1-methyl-2-oxo-2-phenylethyl)-5-phenyl-7-(trifluoromethyl)-4,5,6,7-tetrahydropyrazolo[1,5-a]pyrimidine-3-carboxamide]: the melting point was in the range of 271 to 272 °C.

In the case of `CCC1(NC(=O)c2cnn3c2NC(c2ccccc2)CC3(C)C)CCSCC1` (stereo not shown) [Example 575, N-(4-ethyltetrahydro-2H-thiopyran-4-yl)-7,7-dimethyl-5-phenyl-4,5,6,7-tetrahydropyrazolo[1,5-a]pyrimidine-3-carboxamide], the melting point was 97 to 98 °C.

`O=C(NC12CC3CC(CC(C3)C1)C2)c1cnn2c1NC(c1cccc(Cl)c1)CC2C(F)(F)F` (stereo not shown) [Example 282, N-(1-adamantyl)-5-(3-chlorophenyl)-7-(trifluoromethyl)-4,5,6,7-tetrahydropyrazolo[1,5-a]pyrimidine-3-carboxamide]: the melting point is 246 to 247 °C.

Turning to `CCC(CC)(NC(=O)c1cnn2c1NC(c1ccccc1)CC2(C)C)c1ccc(CO)cc1` (stereo not shown) [Example 739, N-(1-ethyl-1-(4-(hydroxymethyl)phenyl)propyl)-7,7-dimethyl-5-phenyl-4,5,6,7-tetrahydropyrazolo[1,5-a]pyrimidine-3-carboxamide], the melting point lay in the range of 178 to 179 °C.

Regarding `CCCC(CC)(CC)NC(=O)c1c(C)nn2c1NC(c1ccccc1)CC2(C)C` (stereo not shown) (as salt: HCl) [Example 838, N-(1,1-diethylbutyl)-2,7,7-trimethyl-5-phenyl-4,5,6,7-tetrahydropyrazolo[1,5-a]pyrimidine-3-carboxamide], the melting point fell in the range of 176 to 177 °C.

Turning to `O=C(NC12CC3CC(CC(C3)C1)C2)c1cnn2c1NC(c1ccccc1)CC21CCCCC1` (stereo not shown), the melting point is 274 to 275 °C.

The compound `O=C(NC12CC3CC(CC(C3)C1)C2)c1cnn2c1NC(c1ccco1)CC2C(F)(F)F` (stereo not shown) [Example 270, N-(1-adamantyl)-5-(2-furyl)-7-(trifluoromethyl)-4,5,6,7-tetrahydropyrazolo[1,5-a]pyrimidine-3-carboxamide] showed a melting point of 230 to 231 °C.

The compound `Cc1ccc(C(C)(C)NC(=O)c2c(C)nn3c2NC(c2ccccc2)CC3(C)C)cc1` (stereo not shown) (as salt: HCl) [Example 794, 2,7,7-trimethyl-N-(1-methyl-1-(4-methylphenyl)ethyl)-5-phenyl-4,5,6,7-tetrahydropyrazolo[1,5-a]pyrimidine-3-carboxamide] returned a melting point of 193 to 194 °C.

In turn, `Cc1nn2c(c1C(=O)O)NC(c1ccccc1F)CC2(C)C` (single isomer, unassigned; (+)) [Example 1024, (+)-5-(2-fluorophenyl)-2,7,7-trimethyl-4,5,6,7-tetrahydropyrazolo[1,5-a]pyrimidine-3-carboxylic acid] had a melting point of 150 to 151 °C.

Take `COc1ccc(C2CC(C(F)(F)F)n3ncc(C(=O)NC45CC6CC(CC(C6)C4)C5)c3N2)cc1` (stereo not shown) [Example 202, N-(1-adamantyl)-5-(4-methoxyphenyl)-7-(trifluoromethyl)-4,5,6,7-tetrahydropyrazolo[1,5-a]pyrimidine-3-carboxamide]: the melting point lay within 241 to 243 °C.

Compound `CCCC1(NC(=O)c2cnn3c2NC(c2ccccc2)CC3(C)C)CCCCC1` (stereo not shown) [Example 619, 7,7-dimethyl-5-phenyl-N-(1-propylcyclohexyl)-4,5,6,7-tetrahydropyrazolo[1,5-a]pyrimidine-3-carboxamide] registered a melting point of 152 to 153 °C.

`CC1(C)CC(c2ccccc2)Nc2c(C(=O)N(Cc3ccc(C(F)(F)F)cc3)Cc3ccc(C(F)(F)F)cc3)cnn21` (stereo not shown) [Example 409, 7,7-dimethyl-5-phenyl-N,N-bis(4-(trifluoromethyl)benzyl)-4,5,6,7-tetrahydropyrazolo[1,5-a]pyrimidine-3-carboxamide] returned a melting point of 164 to 165 °C.

`CCC(CC)(NC(=O)c1cnn2c1NC(c1cccc(OC)c1)CC2(C)C)c1ccc(C)cc1` (stereo not shown) (as salt: HCl) [Example 820, N-(1-ethyl-1-(4-methylphenyl)propyl)-5-(3-methoxyphenyl)-7,7-dimethyl-4,5,6,7-tetrahydropyrazolo[1,5-a]pyrimidine-3-carboxamide] yielded a melting point of 168 to 169 °C.

In the case of `O=C(O)c1cnn2c1NC(c1ccccc1Cl)CC2C(F)(F)F` (stereo not shown) [Example 32, 5-(2-chlorophenyl)-7-(trifluoromethyl)-4,5,6,7-tetrahydropyrazolo[1,5-a]pyrimidine-3-carboxylic acid], the melting point is 177 to 179 °C.

Consider `CCCC(CC)(CC)NC(=O)c1c(C)nn2c1N[C@@H](c1ccccc1)CC2(C)C` (as salt: HCl) [Example 1055, (5R)-N-(1,1-diethylbutyl)-2,7,7-trimethyl-5-phenyl-4,5,6,7-tetrahydropyrazolo[1,5-a]pyrimidine-3-carboxamide], for which the melting point was 176 to 177 °C.

For the compound `O=C(NC1C2CC3CC(C2)CC1C3)c1cnn2c1NC(c1ccc3ccccc3c1)CC2C(F)(F)F` (stereo not shown) [Example 90, N-(2-adamantyl)-5-(2-naphthyl)-7-(trifluoromethyl)-4,5,6,7-tetrahydropyrazolo[1,5-a]pyrimidine-3-carboxamide], the melting point was 280 to 282 °C.

As for `CCC1(CC)C[C@@H](O)CN1C(=O)c1c(C)nn2c1N[C@@H](c1ccccc1)CC2(C)C` [Example 1097, (3R)-5,5-diethyl-1-(((5R)-2,7,7-trimethyl-5-phenyl-4,5,6,7-tetrahydropyrazolo[1,5-a]pyrimidin-3-yl)carbonyl)-3-pyrrolidinol], the melting point is 162 to 164 °C.

In turn, `CCC(CC)(NC(=O)c1cnn2c1NC(c1ccccc1O)CC2(C)C)c1ccc(C(F)(F)F)cc1` (stereo not shown) [Example 629, N-(1-ethyl-1-(4-(trifluoro-methyl)phenyl)propyl)-5-(2-hydroxyphenyl)-7,7-dimethyl-4,5,6,7-tetrahydropyrazolo[1,5-a]pyrimidine-3-carboxamide] showed a melting point of 122 to 124 °C.

Consider `COC(=O)C1(NC(=O)c2cnn3c2N[C@H](c2ccccc2)C[C@@H]3C(F)(F)F)CCCCC1` (stereo in doubt) [Example 367, methyl 1-(((5-phenyl-7-(trifluoromethyl)-4,5,6,7-tetrahydropyrazolo[1,5-a]pyrimidin-3-yl)carbonyl)amino)cyclohexane carboxylate], for which the melting point lay in the range of 213 to 214 °C.

Turning to `CCC(CC)(NC(=O)c1c(C)nn2c1N[C@@H](c1ccccc1)CC2(C)C)c1ccc(Cl)cc1` (as salt: HCl) [Example 1043, (5R)-N-(1-(4-chlorophenyl)-1-ethylpropyl)-2,7,7-trimethyl-5-phenyl-4,5,6,7-tetrahydropyrazolo[1,5-a]pyrimidine-3-carboxamide], the melting point was 193 to 194 °C.

`CC1(C)CC(c2ccccc2)Nc2c(C(=O)N(Cc3ccccc3)Cc3ccccc3)cnn21` (stereo not shown) [Example 408, N,N-dibenzyl-7,7-dimethyl-5-phenyl-4,5,6,7-tetrahydropyrazolo[1,5-a]pyrimidine-3-carboxamide] had a melting point of 206 to 207 °C.

Take `C=CCc1ccc(C(CC)(CC)NC(=O)c2cnn3c2NC(c2ccccc2)CC3(C)C)cc1` (stereo not shown) [Example 705, N-(1-(4-allylphenyl)-1-ethylpropyl)-7,7-dimethyl-5-phenyl-4,5,6,7-tetrahydropyrazolo[1,5-a]pyrimidine-3-carboxamide]: the melting point was 147 to 148 °C.

As for `CCC(CC)(NC(=O)c1cnn2c1NC(c1ccccc1)CC2(C)C)c1ccc(CCC(=O)OC(C)C)cc1` (stereo not shown) (as salt: HCl) [Example 816, isopropyl 3-(4-(1-(((7,7-dimethyl-5-phenyl-4,5,6,7-tetrahydropyrazolo[1,5-a]pyrimidin-3-yl)carbonyl)amino)-1-ethyl-propyl)phenyl)propanoate], the melting point fell in the range of 150 to 151 °C.

`CCC(CC)(NC(=O)c1cnn2c1NC(c1ccccc1)CC2(C)C)c1ccc(-c2ccco2)cc1` (stereo not shown) [Example 584, N-(1-ethyl-1-(4-(2-furyl)phenyl)propyl)-7,7-dimethyl-5-phenyl-4,5,6,7-tetrahydropyrazolo[1,5-a]pyrimidine-3-carboxamide] came in with a melting point of 167 to 168 °C.

Compound `CCC(NC(=O)c1cnn2c1NC(c1ccccc1)CC2C(F)(F)F)c1ccccc1C` (stereo not shown) [Example 399, N-(1-(2-methylphenyl)propyl)-5-phenyl-7-(trifluoromethyl)-4,5,6,7-tetrahydropyrazolo[1,5-a]pyrimidine-3-carboxamide] returned a melting point of 225 to 226 °C.

`Cc1nn2c(c1C(=O)O)NC(c1cccc(F)c1)CC2(C)C` (stereo not shown) [Example 945, 5-(3-fluorophenyl)-2,7,7-trimethyl-4,5,6,7-tetrahydropyrazolo[1,5-a]pyrimidine-3-carboxylic acid]: the melting point lay within 153 to 155 °C.

Turning to `CCCOC(=O)c1ccc(C(CC)(CC)NC(=O)c2cnn3c2NC(c2ccccc2)CC3(C)C)cc1` (stereo not shown) [Example 762, propyl 4-(1-(((7,7-dimethyl-5-phenyl-4,5,6,7-tetrahydropyrazolo[1,5-a]pyrimidin-3-yl)carbonyl)amino)-1-ethylpropyl)benzoate], the melting point is 162 to 163 °C.

Take `CCC(CC)(NC(=O)c1c(C)nn2c1NC(c1ccccc1F)CC2(C)C)c1ccccc1` (stereo not shown) (as salt: HCl) [Example 840, N-(1-ethyl-1-phenylpropyl)-5-(2-fluorophenyl)-2,7,7-trimethyl-4,5,6,7-tetrahydropyrazolo[1,5-a]pyrimidine-3-carboxamide]: the melting point lay within 160 to 162 °C.
